Measured values reported in patent US20250051347A1, “BIFUNCTIONAL CHIMERIC HETEROCYCLIC COMPOUND AND USE THEREOF AS ANDROGEN RECEPTOR DEGRADER” (Hinova Pharmaceuticals, Inc., priority 2021, published 2025).

biological target: T1, androgen receptor (AR) splicing variant AR-v7 (Homo sapiens, UniProt P10275); assay: Degradation activity on androgen receptor splicing variant AR-v7 in 22RV1 cells (ELISA); type: cell-based; details: AR-v7 degradation in 22RV1 cells, 48 h, class symbols
T1 construct: The degradation activity of compounds on AR-v7 in 22RV1 cells; host or cells: 22RV1 cells
T1 sequence (P10275 1-644 isoform P10275-3): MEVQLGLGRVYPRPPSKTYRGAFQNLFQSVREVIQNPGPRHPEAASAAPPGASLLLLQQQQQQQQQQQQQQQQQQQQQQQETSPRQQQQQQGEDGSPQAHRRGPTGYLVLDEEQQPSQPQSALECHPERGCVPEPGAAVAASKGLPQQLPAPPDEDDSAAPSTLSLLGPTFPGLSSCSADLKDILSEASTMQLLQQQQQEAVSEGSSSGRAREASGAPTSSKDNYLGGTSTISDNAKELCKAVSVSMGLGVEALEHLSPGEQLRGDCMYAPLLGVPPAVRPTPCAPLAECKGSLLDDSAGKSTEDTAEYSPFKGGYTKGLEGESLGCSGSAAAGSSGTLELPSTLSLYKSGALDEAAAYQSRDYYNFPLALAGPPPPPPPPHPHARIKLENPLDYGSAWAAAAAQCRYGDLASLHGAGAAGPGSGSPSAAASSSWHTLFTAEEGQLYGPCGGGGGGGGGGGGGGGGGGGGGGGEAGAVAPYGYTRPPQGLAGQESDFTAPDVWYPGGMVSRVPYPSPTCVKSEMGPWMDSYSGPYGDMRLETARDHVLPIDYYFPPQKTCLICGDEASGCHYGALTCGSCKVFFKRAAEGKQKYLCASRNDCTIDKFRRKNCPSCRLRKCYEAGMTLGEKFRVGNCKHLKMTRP

`CC(C)(c1ccc(Oc2ncnc(N3CC(N4CCC4)C3)c2F)cc1)c1ccc(O[C@H]2C[C@@H](Nc3ccc4c(c3)C(=O)N(C3CCC(=O)NC3=O)C4=O)C2)cc1` (some centres unmarked) [Example 575] and `Cc1noc(-c2cccc(COc3ccc(C(C)(C)c4ccc(O[C@H]5C[C@@H](Nc6ccc7c(c6)C(=O)N(C6CCC(=O)NC6=O)C7=O)C5)cc4)cc3)n2)n1` (some centres unmarked) [Example 472] fall in the same range of DC50: 11 to 100 nM for the first, 11 to 100 nM for the second.

`CC(C)(c1ccc(OCc2ccnc(N3CCC4(CCNC4)CC3)n2)cc1)c1ccc(O[C@H]2C[C@@H](Nc3ccc4c(c3)C(=O)N(C3CCC(=O)NC3=O)C4=O)C2)cc1` (some centres unmarked) [Example 500, 5-((1s,3s)-3-(4-(2-(4-(4-((2-(2,8-diazaspiro[4.5]decan-8-yl)pyrimidin-4-yl)methoxy)phenyl)propan-2-yl)phenoxy)cyclobutyl)amino)-2-(2,6-dioxopyridin-3-yl)isoindolin-1,3-dione] and `Cc1nc(-c2cccc(Oc3ccc(C(C)(C)c4ccc(O[C@H]5C[C@@H](Nc6ccc7c(c6)C(=O)N(C6CCC(=O)NC6=O)C7=O)C5)cc4)cc3)n2)no1` (some centres unmarked) [Example 422] fall in the same range of DC50: 11 to 100 nM for the first, 11 to 100 nM for the second.

`Cc1nc(-c2cnc(Oc3ccc(C(C)(C)c4ccc(O[C@H]5C[C@H](Nc6ccc7c(c6)C(=O)N(C6CCC(=O)NC6=O)C7=O)C5)cc4)cc3)cn2)no1` (some centres unmarked) [Example 586] and `Cc1nc(-c2ccnc(Oc3ccc(C(C)(C)c4ccc(O[C@H]5C[C@@H](Nc6ccc7c(c6)C(=O)N(C6CCC(=O)NC6=O)C7=O)C5)cc4)cc3)c2)no1` (some centres unmarked) [Example 481] fall in the same range of DC50: 11 to 100 nM for the first, 11 to 100 nM for the second.

First: CC(C)(c1ccc(OCc2ccnc(N3CC4(COC4)C3)n2)cc1)c1ccc(O[C@H]2CC[C@@H](Nc3ccc4c(c3)C(=O)N(C3CCC(=O)NC3=O)C4=O)CC2)cc1 (some centres unmarked) [Example 153, 5-(((1s,4s)-4-(4-(2-(4-((2-(2-oxa-6-azaspiro[3.3]heptan-6-yl)pyrimidin-4-yl)methoxy)phenyl)propan-2-yl)phenoxy)cyclohexyl)amino)-2-(2,6-dioxopyridin-3-yl)isoindolin-1,3-dione]
Second: Cc1nc(-c2cccc(COc3ccc(C(C)(C)c4ccc(O[C@H]5C[C@H](Nc6ccc7c(c6)C(=O)N(C6CCC(=O)NC6=O)C7=O)C5)cc4)cc3)n2)no1 (some centres unmarked) [Example 283]
The DC50 of the first is higher: 101 to 1000 nM for the first, 11 to 100 nM for the second.

`CC(C)(c1ccc(Oc2cnc(C#N)cn2)cc1)c1ccc(O[C@H]2C[C@H](Nc3ccc4c(c3)C(=O)N(C3CCC(=O)NC3=O)C4=O)C2)cc1` (some centres unmarked) [Example 594, 5-(4-(2-(4-((1r,3r)-3-((2-(2,6-dioxopiperidin-3-yl)-1,3-dioxoisoindolin-5-yl)amino)cyclobutyloxy)phenyl)propan-2-yl)phenoxy)pyrazin-2-nitrile] and `CC(C)(c1ccc(OCc2ccnc(N3CC4(CCNCC4)C3)n2)cc1)c1ccc(O[C@H]2C[C@@H](Nc3ccc4c(c3)C(=O)N(C3CCC(=O)NC3=O)C4=O)C2)cc1` (some centres unmarked) [Example 85, 5-(((1s,3s)-3-(4-(2-(4-((2-(2,7-diazaspiro[3.5]nonan-2-yl)pyrimidin-4-yl)methoxy)phenyl)propan-2-yl)phenoxy)cyclobutyl)amino)-2-(2,6-dioxopiperidin-3-yl)isoindolin-1,3-dione] fall in the same range of DC50: 11 to 100 nM for the first, 11 to 100 nM for the second.

First: CC(=O)c1nccc(COc2ccc(C(C)(C)c3ccc(OC4CCN(c5ccc6c(c5)C(=O)N(C5CCC(=O)NC5=O)C6=O)C4)cc3)cc2)n1 (centres unmarked) [Example 486]
Second: CC(C)(c1ccc(OCc2ccnc(N3CC4CNCC4C3)n2)cc1)c1ccc(OC2CC(Nc3ccc4c(c3)C(=O)N(C3CCC(=O)NC3=O)C4=O)C2)cc1 (centres unmarked) [Example 80]
The DC50 of the first is higher: 101 to 1000 nM for the first, 11 to 100 nM for the second.

`Cc1nnc(-c2cc(Oc3ccc(C(C)(C)c4ccc(O[C@H]5C[C@H](Nc6ccc7c(c6)C(=O)N(C6CCC(=O)NC6=O)C7=O)C5)cc4)cc3)ncn2)o1` (some centres unmarked) [Example 590] and `Cc1nc(-c2ncc(Oc3ccc(C(C)(C)c4ccc(OC[C@@H]5CCN5c5ccc6c(c5)C(=O)N(C5CCC(=O)NC5=O)C6=O)cc4)cc3)cn2)no1` (stereo partly drawn) [Example 326, 2-(2,6-dioxopiperidin-3-yl)-5-((S)-2-((4-(2-(4-((2-(5-methyl-1,2,4-oxadiazol-3-yl)pyrimidin-5-yl)oxy)phenyl)propan-2-yl)phenoxy)methyl)azetidin-1-yl)isoindolin-1,3-dione] fall in the same range of DC50: 11 to 100 nM for the first, 11 to 100 nM for the second.

First: 5-(((1s,3s)-3-(4-(2-(4-((2-(2H-1,2,3-triazol-2-yl)pyrimidin-5-yl)oxy)phenyl)propan-2-yl)phenoxy)cyclobutyl)amino)-2-(2,6-dioxopiperidin-3-yl)isoindolin-1,3-dione [Example 482]
Second: CC(C)(c1ccc(OCc2ccnc(N3CC4(COC4)C3)n2)cc1)c1ccc(OC[C@@H]2CCCN2c2ccc3c(c2)C(=O)N(C2CCC(=O)NC2=O)C3=O)cc1 (stereo partly drawn) [Example 313, 5-((S)-2-((4-(2-(4-((2-(2-oxa-6-azaspiro[3.3]heptane-6-yl)pyrimidin-4-yl)methoxy)phenyl)propan-2-yl)phenoxy)methyl)pyrrolidin-1-yl)-2-(2,6-dioxopiperidin-3-yl)isoindolin-1,3-dione]
The DC50 of the first is lower: 11 to 100 nM for the first, 101 to 1000 nM for the second.

`CC(C)(c1ccc(OCCCNc2ccc3c(c2)C(=O)N(C2CCC(=O)NC2=O)C3=O)cc1)c1ccc(OCc2ccnc(-n3cccn3)n2)cc1` (centres unmarked) [Example 387, 5-((3-(4-(2-(4-((2-(1H-pyrazol-1-yl)pyrimidin-4-yl)methoxy)phenyl)propan-2-yl)phenoxy)propyl)amino)-2-(2,6-dioxopiperidin-3-yl)isoindol-1,3-dione] and `CC(C)(c1ccc(OCc2ccnc(OC3CCNCC3)n2)cc1)c1ccc(O[C@H]2C[C@@H](Nc3ccc4c(c3)C(=O)N(C3CCC(=O)NC3=O)C4=O)C2)cc1` (some centres unmarked) [Example 236] fall in the same range of DC50: 11 to 100 nM for the first, 11 to 100 nM for the second.

First: CN1CC(Oc2nccc(COc3ccc(C(C)(C)c4ccc(O[C@H]5C[C@@H](Nc6ccc7c(c6)C(=O)N(C6CCC(=O)NC6=O)C7=O)C5)cc4)cc3)n2)C1 (some centres unmarked) [Example 407]
Second: Cn1nc(C(F)(F)F)cc1-c1nccc(COc2ccc(C(C)(C)c3ccc(O[C@H]4C[C@@H](Nc5ccc6c(c5)C(=O)N(C5CCC(=O)NC5=O)C6=O)C4)cc3)cc2)n1 (some centres unmarked) [Example 462]
The DC50 of the first is lower: 11 to 100 nM for the first, 101 to 1000 nM for the second.

First: Cc1nc(-c2ccc(Oc3ccc(C(C)(C)c4ccc(O[C@H]5C[C@@H](Nc6ccc7c(c6)C(=O)N(C6CCC(=O)NC6=O)C7=O)C5)cc4)cc3)cn2)no1 (some centres unmarked) [Example 587]
Second: CC(C)(c1ccc(OCCCCCCCOCCN2CCN(c3ccc4c(c3)C(=O)N(C3CCC(=O)NC3=O)C4=O)CC2)cc1)c1ccc(OCc2ccnc(NS(C)(=O)=O)n2)cc1 (centres unmarked) [Example 2, N-(4-((4-(2-(4-((7-(2-(4-(2-(2,6-dioxopiperidin-3-yl)-1,3-dioxoisoindolin-5-yl)piperazin-1-yl)ethoxy)heptyl)oxy)phenyl)propan-2-yl)phenoxy)methyl)pyrimidin-2-yl)methanesulfonamide]
The DC50 of the first is lower: 11 to 100 nM for the first, 101 to 1000 nM for the second.

First: CC(O)c1nccc(COc2ccc(C(C)(C)c3ccc(OCCCNc4cccc5c4C(=O)N(C4CCC(=O)NC4=O)C5=O)cc3)cc2)n1 (centres unmarked) [Example 346, 2-(2,6-dioxopiperidin-3-yl)-4-((3-(4-(2-(4-((2-(1-hydroxylethyl)pyrimidin-4-yl)methoxy)phenyl)isopropan-2-yl)phenoxy)propyl)amino)isoindolin-1,3-dione]
Second: CC(=O)c1nccc(COc2ccc(C(C)(C)c3ccc(OC[C@@H]4CCCN4c4ccc5c(c4)C(=O)N(C4CCC(=O)NC4=O)C5=O)cc3)cc2)n1 (stereo partly drawn) [Example 145, 5-((S)-2-((4-(2-(4-((2-acetylpyrimidin-4-yl)methoxy)phenyl)propan-2-yl)phenoxy)methyl)pyrrolidin-1-yl)-2-(2,6-dioxopiperidin-3-yl)isoindolin-1,3-dione]
The DC50 of the first is higher: 1000 to 5000 nM for the first, 101 to 1000 nM for the second.

`CC(C)(c1ccc(OCc2nc(N3CC4(COC4)C3)ncc2Cl)cc1)c1ccc(O[C@H]2C[C@@H](Nc3ccc4c(c3)C(=O)N(C3CCC(=O)NC3=O)C4=O)C2)cc1` (some centres unmarked) [Example 201, 5-((1s,3s)-3-(4-(2-(4-((5-chloro-2-(2-oxa-6-azaspiro[3.3]heptan-6-yl)pyrimidin-4-methoxy)phenyl)propan-2-yl)phenoxy)cyclobutyl)amino)-2-(2,6-dioxopiperidin-3-yl)isoindolin-1,3-dione] and `CC(C)(c1ccc(Oc2cncc(N3CC4(COC4)C3)n2)cc1)c1ccc(O[C@H]2C[C@@H](Nc3ccc4c(c3)C(=O)N(C3CCC(=O)NC3=O)C4=O)C2)cc1` (some centres unmarked) [Example 159] fall in the same range of DC50: 11 to 100 nM for the first, 11 to 100 nM for the second.

Compound `CC(C)(c1ccc(Oc2ccc(N3CC4(COC4)C3)nc2)cc1)c1ccc(O[C@H]2C[C@H](Nc3ccc4c(c3)C(=O)N(C3CCC(=O)NC3=O)C4=O)C2)cc1` (some centres unmarked) [Example 214] has a DC50 of 11 to 100 nM.

same assay, conditions: AR-v7 degradation in 22RV1 cells, 48 h, numeric values

Compared with `CC(=O)c1cccc(COc2ccc(C(C)(C)c3ccc(OCCCCCCCCOCCCCNc4ccc5c(c4)C(=O)N(C4CCC(=O)NC4=O)C5=O)cc3)cc2)n1` (centres unmarked) [Example 349, 5-((4-((8-(4-(2-(4-((6-acetylpyridin-2-yl)methoxy)phenyl)isopropan-2-yl)phenoxy)octyl)oxy)tert-butyl)amino)-2-(2,6-dioxopiperidin-3-yl)isoindolin-1,3-dione], `CC(C)(c1ccc(OCc2ccnc(NS(C)(=O)=O)n2)cc1)c1ccc(OCC2CCN(C[C@H]3CC[C@H](CN4CCN(c5ccc6c(c5)C(=O)N(C5CCC(=O)NC5=O)C6=O)CC4)CC3)CC2)cc1` (some centres unmarked) [Example 45] is lower in DC50: > 10000 nM for the first, 8760 nM for the second.
